From ChEMBL document CHEMBL2073812, “Functional analysis of candidate ABC transporter proteins for sitosterol transport” (Biochim Biophys Acta, 2002)

Columns and labels:
[1] = target: ATP-dependent translocase ABCB1 (Homo sapiens, UniProt P08183); test: TP_TRANSPORTER: Flow cytometry in MDR1-expressing NIH3T3 cells; format: functional, cell-based; conditions: mouse
Bile salt export pump = target: T1, Bile salt export pump (Rattus norvegicus, UniProt O70127); test: TP_TRANSPORTER: inhibition of taurocholate uptake (taurocholate: 2 uM, beta-sitosterol: 10 uM) in membrane vesicles of Bsep-expressing […] cells; format: functional, cell membranes, Membrane vesicle; conditions: sf9, 10 µM
T1 sequence (O70127 whole entry): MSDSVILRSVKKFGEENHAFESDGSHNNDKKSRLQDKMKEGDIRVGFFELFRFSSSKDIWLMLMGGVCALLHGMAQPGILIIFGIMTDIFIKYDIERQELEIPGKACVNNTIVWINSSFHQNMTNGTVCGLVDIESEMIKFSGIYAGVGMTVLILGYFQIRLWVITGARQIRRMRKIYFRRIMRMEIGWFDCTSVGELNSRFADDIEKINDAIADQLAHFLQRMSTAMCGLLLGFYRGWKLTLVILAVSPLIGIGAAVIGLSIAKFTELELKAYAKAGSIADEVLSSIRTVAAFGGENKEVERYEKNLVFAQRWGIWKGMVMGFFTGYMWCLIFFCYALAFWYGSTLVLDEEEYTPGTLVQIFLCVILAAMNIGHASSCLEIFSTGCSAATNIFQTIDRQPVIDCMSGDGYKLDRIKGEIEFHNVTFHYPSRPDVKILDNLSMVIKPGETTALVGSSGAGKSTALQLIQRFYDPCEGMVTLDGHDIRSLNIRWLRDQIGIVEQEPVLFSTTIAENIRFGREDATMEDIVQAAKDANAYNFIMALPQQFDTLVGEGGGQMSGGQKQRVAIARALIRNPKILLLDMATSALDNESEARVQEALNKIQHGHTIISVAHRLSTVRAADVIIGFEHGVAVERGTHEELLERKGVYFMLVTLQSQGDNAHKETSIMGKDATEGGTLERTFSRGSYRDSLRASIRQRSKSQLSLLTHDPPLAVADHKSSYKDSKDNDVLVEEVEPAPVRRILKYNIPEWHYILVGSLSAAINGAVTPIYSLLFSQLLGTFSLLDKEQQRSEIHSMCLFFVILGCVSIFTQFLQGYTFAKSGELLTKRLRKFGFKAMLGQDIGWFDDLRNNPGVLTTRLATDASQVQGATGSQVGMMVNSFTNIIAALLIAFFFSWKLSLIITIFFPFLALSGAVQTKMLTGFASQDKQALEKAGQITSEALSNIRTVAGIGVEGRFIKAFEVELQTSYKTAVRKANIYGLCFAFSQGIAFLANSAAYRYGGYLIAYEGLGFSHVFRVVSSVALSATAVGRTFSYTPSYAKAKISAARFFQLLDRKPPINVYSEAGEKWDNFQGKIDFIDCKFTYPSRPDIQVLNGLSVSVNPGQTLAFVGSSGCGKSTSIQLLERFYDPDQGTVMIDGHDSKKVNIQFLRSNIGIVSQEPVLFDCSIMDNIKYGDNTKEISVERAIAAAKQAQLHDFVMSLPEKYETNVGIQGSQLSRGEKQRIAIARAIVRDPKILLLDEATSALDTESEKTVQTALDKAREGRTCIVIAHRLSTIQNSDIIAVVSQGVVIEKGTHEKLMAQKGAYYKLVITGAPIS

[2] = target: T2, Broad substrate specificity ATP-binding cassette transporter ABCG2 (Mus musculus, UniProt Q7TMS5); test: TP_TRANSPORTER: Flow cytometry in lymphocytes from Mdr1a/b-/- mice; format: functional, cell-based; conditions: lymphocyte
T2 sequence (Q7TMS5 whole entry): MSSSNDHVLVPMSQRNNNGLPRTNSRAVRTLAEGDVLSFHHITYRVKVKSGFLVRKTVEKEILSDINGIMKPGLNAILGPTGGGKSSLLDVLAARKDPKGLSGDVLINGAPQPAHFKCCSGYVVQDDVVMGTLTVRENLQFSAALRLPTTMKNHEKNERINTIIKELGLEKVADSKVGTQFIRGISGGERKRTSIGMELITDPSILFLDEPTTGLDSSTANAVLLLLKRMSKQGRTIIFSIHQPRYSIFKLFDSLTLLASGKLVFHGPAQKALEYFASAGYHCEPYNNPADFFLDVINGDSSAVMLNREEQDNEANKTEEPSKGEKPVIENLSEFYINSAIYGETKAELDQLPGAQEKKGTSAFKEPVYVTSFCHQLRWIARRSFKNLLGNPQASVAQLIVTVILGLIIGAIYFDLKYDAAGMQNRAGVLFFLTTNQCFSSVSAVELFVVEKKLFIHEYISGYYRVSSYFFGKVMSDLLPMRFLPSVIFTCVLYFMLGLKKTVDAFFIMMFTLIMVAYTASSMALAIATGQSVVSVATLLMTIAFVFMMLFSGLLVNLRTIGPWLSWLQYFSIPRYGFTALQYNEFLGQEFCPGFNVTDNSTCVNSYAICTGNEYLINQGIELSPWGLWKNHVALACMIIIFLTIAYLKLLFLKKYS

[3] = target: Multidrug resistance-associated protein 1 (Mus musculus, UniProt O35379); test: TP_TRANSPORTER: Flow cytometry in lymphocytes from Mdr1a/b(-/)- mice; format: functional; conditions: lymphocyte
Sequence of Multidrug resistance-associated protein 1 (O35379 whole entry): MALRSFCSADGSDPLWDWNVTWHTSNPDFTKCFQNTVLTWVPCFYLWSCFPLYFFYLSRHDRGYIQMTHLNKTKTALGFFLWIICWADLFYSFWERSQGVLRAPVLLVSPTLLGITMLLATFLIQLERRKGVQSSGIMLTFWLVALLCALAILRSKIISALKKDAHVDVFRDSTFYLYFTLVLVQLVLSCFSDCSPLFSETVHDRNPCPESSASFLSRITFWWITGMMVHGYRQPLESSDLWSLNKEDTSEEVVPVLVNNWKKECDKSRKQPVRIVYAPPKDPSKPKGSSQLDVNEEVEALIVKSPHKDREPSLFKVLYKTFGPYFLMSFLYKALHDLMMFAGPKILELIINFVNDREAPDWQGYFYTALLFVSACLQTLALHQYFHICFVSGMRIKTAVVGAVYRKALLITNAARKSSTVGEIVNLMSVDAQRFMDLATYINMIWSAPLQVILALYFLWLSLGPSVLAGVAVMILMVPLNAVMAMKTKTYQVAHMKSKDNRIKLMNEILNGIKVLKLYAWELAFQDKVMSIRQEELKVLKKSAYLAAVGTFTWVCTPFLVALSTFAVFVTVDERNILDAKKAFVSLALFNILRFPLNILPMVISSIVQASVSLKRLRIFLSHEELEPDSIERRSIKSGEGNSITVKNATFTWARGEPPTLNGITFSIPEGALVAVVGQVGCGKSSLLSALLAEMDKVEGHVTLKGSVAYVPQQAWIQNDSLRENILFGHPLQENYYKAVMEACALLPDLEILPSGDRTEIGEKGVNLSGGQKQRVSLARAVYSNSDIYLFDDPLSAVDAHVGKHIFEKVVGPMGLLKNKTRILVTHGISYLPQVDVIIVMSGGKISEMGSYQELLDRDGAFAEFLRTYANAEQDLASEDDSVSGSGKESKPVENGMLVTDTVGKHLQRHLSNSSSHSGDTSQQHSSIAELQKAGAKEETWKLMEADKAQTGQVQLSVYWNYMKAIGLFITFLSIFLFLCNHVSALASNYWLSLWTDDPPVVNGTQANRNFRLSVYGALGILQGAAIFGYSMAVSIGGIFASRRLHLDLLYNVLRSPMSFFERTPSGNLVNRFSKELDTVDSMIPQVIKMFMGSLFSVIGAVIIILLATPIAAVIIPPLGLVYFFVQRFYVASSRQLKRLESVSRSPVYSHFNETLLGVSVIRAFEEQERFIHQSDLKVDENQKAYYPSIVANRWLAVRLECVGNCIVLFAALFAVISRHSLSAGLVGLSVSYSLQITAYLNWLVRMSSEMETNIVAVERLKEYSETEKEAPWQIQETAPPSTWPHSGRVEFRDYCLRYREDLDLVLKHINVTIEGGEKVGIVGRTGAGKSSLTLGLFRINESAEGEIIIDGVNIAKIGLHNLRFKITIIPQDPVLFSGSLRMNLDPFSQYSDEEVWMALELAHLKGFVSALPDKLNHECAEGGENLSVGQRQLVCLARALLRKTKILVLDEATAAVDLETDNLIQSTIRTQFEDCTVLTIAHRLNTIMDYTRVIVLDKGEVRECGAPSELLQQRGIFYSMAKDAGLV

Sequence of ATP-dependent translocase ABCB1 (P08183 whole entry): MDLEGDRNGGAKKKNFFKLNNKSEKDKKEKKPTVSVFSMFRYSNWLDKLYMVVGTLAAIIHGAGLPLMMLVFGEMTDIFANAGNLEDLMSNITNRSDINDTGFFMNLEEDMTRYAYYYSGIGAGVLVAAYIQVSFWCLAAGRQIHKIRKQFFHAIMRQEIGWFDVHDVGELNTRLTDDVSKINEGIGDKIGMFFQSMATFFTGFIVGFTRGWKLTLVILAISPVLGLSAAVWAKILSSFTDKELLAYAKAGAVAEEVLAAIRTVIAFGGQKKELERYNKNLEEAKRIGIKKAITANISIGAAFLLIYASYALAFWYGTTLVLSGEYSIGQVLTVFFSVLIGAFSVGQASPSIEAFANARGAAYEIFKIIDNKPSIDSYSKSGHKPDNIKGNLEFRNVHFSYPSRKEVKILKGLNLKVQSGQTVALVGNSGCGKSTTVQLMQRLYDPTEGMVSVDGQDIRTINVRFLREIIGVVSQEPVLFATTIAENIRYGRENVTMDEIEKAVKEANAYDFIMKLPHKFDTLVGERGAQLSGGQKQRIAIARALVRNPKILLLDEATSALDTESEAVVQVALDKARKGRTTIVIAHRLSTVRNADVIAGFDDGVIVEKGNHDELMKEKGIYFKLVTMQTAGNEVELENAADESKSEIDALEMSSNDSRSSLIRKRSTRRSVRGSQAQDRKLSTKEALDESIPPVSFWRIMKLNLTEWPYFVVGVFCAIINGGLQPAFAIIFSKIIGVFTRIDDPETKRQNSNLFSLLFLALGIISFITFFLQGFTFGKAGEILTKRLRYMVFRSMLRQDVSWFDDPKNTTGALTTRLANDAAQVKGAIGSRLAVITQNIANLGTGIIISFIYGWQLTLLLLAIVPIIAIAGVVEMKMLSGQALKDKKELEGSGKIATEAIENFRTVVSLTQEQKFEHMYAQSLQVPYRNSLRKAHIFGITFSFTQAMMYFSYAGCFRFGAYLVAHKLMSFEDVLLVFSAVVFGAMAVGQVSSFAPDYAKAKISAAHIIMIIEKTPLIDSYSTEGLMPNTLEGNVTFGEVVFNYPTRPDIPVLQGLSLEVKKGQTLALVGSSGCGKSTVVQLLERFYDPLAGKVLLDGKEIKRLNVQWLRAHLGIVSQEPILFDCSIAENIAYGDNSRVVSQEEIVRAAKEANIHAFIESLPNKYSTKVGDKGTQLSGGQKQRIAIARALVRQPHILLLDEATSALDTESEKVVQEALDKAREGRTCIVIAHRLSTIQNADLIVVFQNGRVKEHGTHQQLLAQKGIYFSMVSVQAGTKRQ

## CC[C@H](CC[C@@H](C)[C@H]1CC[C@H]2[C@@H]3CC=C4C[C@@H](O)CC[C@]4(C)[C@H]3CC[C@]12C)C(C)C [BETA-SITOSTEROL]
[1]
  Activity: is not a substrate [-]
Bile salt export pump
  Activity: is not an inhibitor [-]
[2]
  Activity: is not a substrate [-]
[3]
  Activity: is not a substrate [-]
